The series in a line: Partition coefficient (logP). Type of series: physicochemical. The settings on record: octanol/water.
`CC(C)C(=CC(=O)OC[C@H](CO)OC(=O)C=C(C(C)C)C(C)C)C(C)C` registered a logP of 5.62. To `CC(C)CC(=O)OC[C@H](CO)OC(=O)C=C(C(C)C)C(C)C` belongs 3.89. Next, `CC(C)=CC(=O)OC[C@H](CO)OC(=O)CC(C)C`: 2.07; `CC(C)=CC(=O)O[C@@H](CO)COC(=O)C=C(C(C)C)C(C)C`: 3.8; `CCCC(=O)O[C@@H]1[C@@H](C)[C@@]2(O)[C@@H](C=C(CO)C[C@]3(O)C(=O)C(C)=C[C@@H]23)[C@@H]2C(C)(C)[C@]12OC(=O)CCC`: 3.4.

The compound `CC(C)CC(=O)O[C@@H](CO)COC(=O)C=C(C(C)C)C(C)C` returned a lipophilicity (logP) of 3.89. The compound `CC(C)C(CC(=O)OC[C@H](CO)OC(=O)CC(C(C)C)C(C)C)C(C)C` came in with a logP of 5.79. Next, `CC(C)=CC(=O)OC[C@H](CO)OC(=O)C=C(C(C)C)C(C)C`: 3.8; `CCCCCCCC(=O)OC[C@H](CO)OC(=O)CCCCCCC`: 5.3. Turning to `CC(C)=CC(=O)O[C@@H](CO)COC(=O)CC(C)C`, the logP came out at 2.07. Next, `CC(C)C(=CC(=O)OC[C@H](CO)OC(=O)CC(C(C)C)C(C)C)C(C)C`: 5.71; `CCCCCCCC/C=C/CCCCCCCC(=O)OC[C@H](CO)OC(C)=O`: 7; `CC(C)CC(=O)OC[C@H](CO)OC(=O)CC(C(C)C)C(C)C`: 3.97. To `CC(C)=CC(=O)O[C@@H](CO)COC(=O)CC(C(C)C)C(C)C` belongs 3.88; to `CC(C)C(=CC(=O)O[C@@H](CO)COC(=O)CC(C(C)C)C(C)C)C(C)C`, 5.71. Next, `CC(C)CC(=O)O[C@@H](CO)COC(=O)CC(C(C)C)C(C)C`: 3.97. In turn, `CC(C)=CC(=O)OC[C@H](CO)OC(=O)CC(C(C)C)C(C)C` had a logP of 3.88. The logP values of the last two compounds are within 0.2 log units of each other. Next, `CC(=O)O[C@@]12C[C@@H](C)[C@@]3(O)[C@@H](C=C(CO)C[C@]4(O)C(=O)C(C)=C[C@@H]34)[C@@H]1C2(C)C` [PROSTRATIN]: 1.9; `CC(C)=CC(=O)OC[C@H](CO)OC(=O)C=C(C)C`: 1.99; `CC(C)CC(=O)OC[C@H](CO)OC(=O)CC(C)C`: 2.16.

Source of the values: ChEMBL document CHEMBL1134496, “An optimized protein kinase C activating diacylglycerol combining high binding affinity (Ki) with reduced lipophilicity (log P)” (J Med Chem, 2001).
